# Laboratory results: US8859571B2, “Quinazoline compounds” (GlaxoSmithKline LLC, priority 2009, dated 2014)
# Where a name gives a salt, the structure may show the parent alone.
# Target: T1, Full length human TNNI3K (hTNNI3K) (Homo sapiens, UniProt Q59H18)
# T1 construct: His-MBP-TEV-Full length human TNNI3K (hTNNI3K); His (N); MBP (N); TEV cleavage site (N); made in house; host or cells: baculovirus system (printed 'Baculokinase system')
# T1 sequence (Q59H18 1-835): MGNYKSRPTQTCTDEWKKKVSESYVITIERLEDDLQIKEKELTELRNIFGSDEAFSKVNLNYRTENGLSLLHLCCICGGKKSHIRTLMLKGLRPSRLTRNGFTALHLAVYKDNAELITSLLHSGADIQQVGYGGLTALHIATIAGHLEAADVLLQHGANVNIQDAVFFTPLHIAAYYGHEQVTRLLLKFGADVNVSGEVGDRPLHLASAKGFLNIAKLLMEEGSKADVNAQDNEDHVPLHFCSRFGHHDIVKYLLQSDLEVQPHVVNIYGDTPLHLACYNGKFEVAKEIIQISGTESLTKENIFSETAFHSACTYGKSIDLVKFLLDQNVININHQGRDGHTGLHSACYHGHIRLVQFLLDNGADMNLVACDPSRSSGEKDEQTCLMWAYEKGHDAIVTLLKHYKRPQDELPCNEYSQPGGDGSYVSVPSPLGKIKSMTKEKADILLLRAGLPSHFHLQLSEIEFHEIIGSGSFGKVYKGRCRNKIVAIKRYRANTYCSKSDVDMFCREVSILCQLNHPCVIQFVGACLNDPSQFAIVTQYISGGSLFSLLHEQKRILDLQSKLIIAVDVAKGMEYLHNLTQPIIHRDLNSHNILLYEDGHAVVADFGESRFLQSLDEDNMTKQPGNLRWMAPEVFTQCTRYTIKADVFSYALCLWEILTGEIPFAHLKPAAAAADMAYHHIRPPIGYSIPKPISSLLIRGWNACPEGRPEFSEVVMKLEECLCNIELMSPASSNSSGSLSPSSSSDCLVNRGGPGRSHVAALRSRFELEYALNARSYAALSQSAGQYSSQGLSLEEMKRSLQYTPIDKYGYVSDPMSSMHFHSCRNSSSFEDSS
# Test: Fluorescent polarization assay of compound inhibition on hTNNI3K ATP binding (Biological Assay Method I)
# Details: displacement of fluorescent ligand from hTNNI3K ATP binding pocket; mean of a minimum of 2 experiments; read-out: pXC50 (the source's name) (converted)
# Description: Materials: His-MBP-TEV-Full length human TNNI3K (hTNNI3K) was expressed in Baculokinase system and purified from amylase affinity column followed by Superdex200. The fluorescent ligand 5-({[2-({[3-({4-[(5-hydroxy-2-methylphenyl)amino]-2-pyrimidinyl}amino)phenyl]carbonyl}amino)ethyl]amino}carbonyl)-2-(6-hydroxy-3-oxo-3H-xanthen-9-yl)benzoic acid was used. The preparation of this fluorescent ligand is disclosed in U.S. Provisional Patent Application No. 61/237,815 filed Aug. 28, 2009, the disclosure of which is incorporated by reference herein. The other buffer components, including MgCl2 (Catalog Number M1028), Bis-Tris (Catalog Number B7535), DTT (Catalog Number D9779) and Chaps (Catalog Number C3023) were purchased from Sigma-Aldrich.
# Biological Assay Method I:
# A fluorescent polarization assay was used to determine does response of compound inhibition on hTNNI3K ATP binding.
# Solution 1: Ten (10) mL of a 5 nM 5-({[2-({[3-({4-[(5-hydroxy-2-methylphenyl)amino]-2-pyrimidinyl}amino)phenyl]carbonyl}amino)ethyl]amino}carbonyl)-2-(6-hydroxy-3-oxo-3H-xanthen-9-yl)benzoic acid solution (Solution 1) was prepared by mixing 5 μL of 1M DTT and 80 μL of 10% (w/v) Chaps and 5 μL of a 10 μM 5-({[2-({[3-({4-[(5-hydroxy-2-methylphenyl)amino]-2-pyrimidinyl}amino)phenyl]carbonyl}amino) ethyl]amino}carbonyl)-2-(6-hydroxy-3-oxo-3H-xanthen-9-yl)benzoic acid stock solution into 9910 μL buffer (20 mM Tris, 15 mM MgCl2, pH 7.5). (Stock solution: 10 μM solution of 5-({[2-({[3-({4-[(5-hydroxy-2-methylphenyl)amino]-2-pyrimidinyl}amino)phenyl]carbonyl}amino)ethyl]amino}carbonyl)-2-(6-hydroxy-3-oxo-3H-xanthen-9-yl)benzoic acid in 100% DMSO)
# Solution 2 was formed by mixing 53.8 μL of 2.6 μM hTNNI3K with a 6946.2 μL aliquot of Solution 1 (the above 5-({[2-({[3-({4-[(5-hydroxy-2-methylphenyl)amino]-2-pyrimidinyl}amino)phenyl]carbonyl}amino)ethyl]amino}carbonyl)-2-(6-hydroxy-3-oxo-3H-xanthen-9-yl)benzoic acid solution) to make up a 7 mL of mixture of hTNNI3K and 5-({[2-({[3-({4-[(5-hydroxy-2-methylphenyl)amino]-2-pyrimidinyl}amino)phenyl]carbonyl}amino)ethyl]amino}carbonyl)-2-(6-hydroxy-3-oxo-3H-xanthen-9-yl)benzoic acid (Solution 2).
# Fifty (50) nL of inhibitors in DMSO (or DMSO controls) were stamped into a 384-well low volume Greiner black plate, followed by addition of 5 μL of Solution 1 to column 18 and 5 μL Solution 2 to columns 1-17 and 19-24 of the plate. The plate was then spun at 500 rpm for 30 seconds and incubated at room temperature for 60 minutes. After that, the fluorescent polarization was measured on Analyst (ex/em: 485/530 nm, Dichroic: 505). For dose response experiments, normalized data were fit by ABASE/XC50 and pXC50=(log((b−y)/(y−a)))/d−log(x), where x is the compound concentration and y is the % activity at specified compound concentration, a is the minimum % activity, b is the maximum % activity, and d is the Hill slope.
# The pXC50s are averaged to determine a mean value, for a minimum of 2 experiments.
row,SMILES,IC50
1,"CNS(=O)(=O)c1ccc(N(C)CC(F)(F)F)c(Nc2ncnc3cc(OC)c(OC)cc23)c1 [Example 35, 3-{[6,7-bis(methyloxy)-4-quinazolinyl]amino}-N-methyl-4-[methyl(2,2,2-trifluoroethyl)amino] benzenesulfonamide trifluoroacetate]",0.001 to 0.01 µM
2,"CNS(=O)(=O)c1ccc(N(C)CC(F)(F)F)c(Nc2ncnc3cc(OC)cc(OC)c23)c1 [Example 36, 3-{[5,7-bis(methyloxy)-4-quinazolinyl]amino}-N-methyl-4-[methyl(2,2,2-trifluoroethyl)amino] benzenesulfonamide hydrochloride]",0.01 to 0.1 µM
3,"CNS(=O)(=O)c1ccc(OC)c(Nc2ncnc3cc(OC)cc(OC)c23)c1 [Example 37, 3-{[5,7-bis(methyloxy)-4-quinazolinyl]amino}-N-methyl-4-(methyloxy) benzenesulfonamide hydrochloride]",0.001 to 0.01 µM
4,"CNS(=O)(=O)c1ccc(F)c(Nc2ncnc3cc(OC)cc(OC)c23)c1 [Example 38, 3-{[5,7-bis(methyloxy)-4-quinazolinyl]amino}-4-fluoro-N-methylbenzenesulfonamide hydrochloride]",0.01 to 0.1 µM
5,"CNS(=O)(=O)c1ccc(Cl)c(Nc2ncnc3cc(OC)cc(OC)c23)c1 [Example 39, 3-{[5,7-bis(methyloxy)-4-quinazolinyl]amino}-4-chloro-N-methylbenzenesulfonamide hydrochloride]",0.01 to 0.1 µM
6,"CNS(=O)(=O)c1ccc(N2CCOCC2)c(Nc2ncnc3cc(OC)cc(OC)c23)c1 [Example 40, 3-{[5,7-bis(methyloxy)-4-quinazolinyl]amino}-N-methyl-4-(4-morpholinyl) benzenesulfonamide hydrochloride]",0.01 to 0.1 µM
7,"CCOc1cc2c(Nc3cc(S(=O)(=O)NC)ccc3OCC(F)(F)F)ncnc2cc1OC [Example 42, 3-{[6-(ethyloxy)-7-(methyloxy)-4-quinazolinyl]amino}-N-methyl-4-[(2,2,2-trifluoroethyl)oxy] benzenesulfonamide hydrochloride]",0.01 to 0.1 µM
8,"CNS(=O)(=O)c1ccc(OCC(F)(F)F)c(Nc2ncnc3cc(OC)c(OC(C)C)cc23)c1 [Example 44, N-methyl-3-{[6-[(1-methylethyl)oxy]-7-(methyloxy)-4-quinazolinyl]amino}-4-[(2,2,2-trifluoroethyl)oxy] benzenesulfonamide hydrochloride]",0.01 to 0.1 µM
9,"CNS(=O)(=O)c1ccc(OCC(F)(F)F)c(Nc2ncnc3cc(OCCCCl)ccc23)c1 [Example 45, 3-({7-[(3-chloropropyl)oxy]-4-quinazolinyl}amino)-N-methyl-4-[(2,2,2-trifluoroethyl)oxy] benzenesulfonamide]",0.01 to 0.1 µM
10,"CCOc1cc(OC)cc2ncnc(Nc3cc(S(=O)(=O)NC)ccc3OCC(F)(F)F)c12 [Example 46, 3-{[5-(ethyloxy)-7-(methyloxy)-4-quinazolinyl]amino}-N-methyl-4-[(2,2,2-trifluoroethyl)oxy] benzenesulfonamide]",0.001 to 0.01 µM
11,"CNS(=O)(=O)c1ccc(OCC(F)(F)F)c(Nc2ncnc3cc(OC)cc(OC(C)C)c23)c1 [Example 47, N-methyl-3-{[5-[(1-methylethyl)oxy]-7-(methyloxy)-4-quinazolinyl]amino}-4-[(2,2,2-trifluoroethyl)oxy] benzenesulfonamide]",0.01 to 0.1 µM
12,"CNS(=O)(=O)c1ccc(OCC(F)(F)F)c(Nc2ncnc3cc(OC)c(OC)c(OC)c23)c1 [Example 48, N-methyl-4-[(2,2,2-trifluoroethyl)oxy]-3-{[5,6,7-tris(methyloxy)-4-quinazolinyl]amino}benzene sulfonamide hydrochloride]",0.001 to 0.01 µM
13,"CNS(=O)(=O)c1ccc(OC(C)C(F)(F)F)c(Nc2ncnc3cc(OC)cc(OC)c23)c1 (stereo not drawn) [Example 49, 3-{[5,7-bis(methyloxy)-4-quinazolinyl]amino}-N-methyl-4-[(2,2,2-trifluoro-1-methylethyl)oxy] benzenesulfonamide trifluoroacetate]",0.001 to 0.01 µM
14,"CNS(=O)(=O)c1cc(Nc2ncnc3cc(OC)cc(OC)c23)c(OCC(F)(F)F)cc1F [Example 50, 5-{[5,7-bis(methyloxy)-4-quinazolinyl]amino}-2-fluoro-N-methyl-4-[(2,2,2-trifluoroethyl)oxy] benzenesulfonamide trifluoroacetate]",0.01 to 0.1 µM
15,"CNS(=O)(=O)c1cc(Nc2ncnc3cc(OC)cc(OC)c23)c(OC)cc1F [Example 51, 5-{[5,7-bis(methyloxy)-4-quinazolinyl]amino}-2-fluoro-N-methyl-4-(methyloxy) benzenesulfonamide trifluoroacetate]",0.01 to 0.1 µM
16,"CNS(=O)(=O)c1ccc(SC)c(Nc2ncnc3cc(OC)cc(OC)c23)c1 [Example 53, 3-{[5,7-bis(methyloxy)-4-quinazolinyl]amino}-N-methyl-4-(methylthio) benzenesulfonamide hydrochloride]",0.01 to 0.1 µM
17,"CNS(=O)(=O)c1ccc(OC(F)(F)F)c(Nc2ncnc3cc(OC)cc(OC)c23)c1 [Example 54, 3-{[5,7-bis(methyloxy)-4-quinazolinyl]amino}-N-methyl-4-[(trifluoromethyl)oxy] benzenesulfonamide hydrochloride]",0.001 to 0.01 µM
18,"CNS(=O)(=O)c1ccc(OC(F)(F)F)c(Nc2ncnc3cc(OC)c(OC)c(OC)c23)c1 [Example 55, N-methyl-4-[(trifluoromethyl)oxy]-3-{[5,6,7-tris(methyloxy)-4-quinazolinyl]amino}benzene sulfonamide trifluoroacetate]",0.01 to 0.1 µM
19,"CNS(=O)(=O)c1cc(Nc2ncnc3cc(OC)cc(OC)c23)c(N(C)C)cc1F [Example 56, 5-{[5,7-bis(methyloxy)-4-quinazolinyl]amino}-4-(dimethylamino)-2-fluoro-N-methylbenzenesulfonamide hydrochloride]",0.001 to 0.01 µM
20,"CNS(=O)(=O)c1cc(Nc2ncnc3cc(OC)c(OC)c(OC)c23)c(OCC(F)(F)F)cc1F [Example 58, 2-fluoro-N-methyl-4-[(2,2,2-trifluoroethyl)oxy]-5-{[5,6,7-tris(methyloxy)-4-quinazolinyl]amino}benzene sulfonamide trifluoroacetate]",0.01 to 0.1 µM
21,"CNS(=O)(=O)c1ccc(Cl)c(Nc2ncnc3cc(OC)c(OC)c(OC)c23)c1 [Example 59, 4-chloro-N-methyl-3-{[5,6,7-tris(methyloxy)-4-quinazolinyl]amino}benzene sulfonamide trifluoroacetate]",0.01 to 0.1 µM
